The source made the active and inactive calls. No cut-off for these calls is given here.
Assays:
[1] = system: HEI-193; assay: Binding affinity to Hsp70 in human HEI-193 cells harboring NF2 mutant at 100 uM after 30 mins by SDS-PAGE analysis; format: cell-based
[2] = target: Actin, cytoplasmic 1 (Homo sapiens) (UniProt P60709); assay: Binding affinity to beta-actin in human HEI-193 cells harboring NF2 mutant at 100 uM after 30 mins by SDS-PAGE analysis; format: cell-based
[3] = Cytotoxicity against human HEI-193 cells harboring NF2 mutant assessed as growth inhibition after 72 hrs by MTT assay; format: functional, cell-based; settings: HEI-193, 72 h
[4] = target: Heat shock protein HSP90 (Homo sapiens) (UniProt P07900+P08238); assay: Binding affinity to Hsp90 in human HEI-193 cells harboring NF2 mutant at 100 uM after 30 mins by SDS-PAGE analysis; format: cell-based
[5] = target: T1, D-3-phosphoglycerate dehydrogenase (Homo sapiens) (UniProt O43175); assay: Binding affinity to 3-PGDH in human HEI-193 cells harboring NF2 mutant at 100 uM after 30 mins by SDS-PAGE analysis; format: cell-based
T1 sequence (whole entry): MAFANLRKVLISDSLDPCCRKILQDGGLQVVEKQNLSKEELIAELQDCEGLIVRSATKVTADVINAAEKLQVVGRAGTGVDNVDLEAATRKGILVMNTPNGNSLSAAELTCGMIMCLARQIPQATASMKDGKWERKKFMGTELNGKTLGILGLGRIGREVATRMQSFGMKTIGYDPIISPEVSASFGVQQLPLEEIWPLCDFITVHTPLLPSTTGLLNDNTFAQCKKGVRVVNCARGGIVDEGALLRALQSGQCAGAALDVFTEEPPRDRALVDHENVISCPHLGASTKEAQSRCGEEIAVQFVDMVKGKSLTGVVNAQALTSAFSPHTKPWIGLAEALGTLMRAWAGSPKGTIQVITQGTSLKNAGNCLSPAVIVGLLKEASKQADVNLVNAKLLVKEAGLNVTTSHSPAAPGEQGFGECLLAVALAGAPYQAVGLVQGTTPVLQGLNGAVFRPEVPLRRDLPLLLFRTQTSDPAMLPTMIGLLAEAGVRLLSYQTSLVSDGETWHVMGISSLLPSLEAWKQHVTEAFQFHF

[6] = Downregulation of Hsp27 expression in human keratinocytes at 10 uM; format: functional, cell-based; settings: Keratinocyte

| Activity [2] | Activity [4] | Activity [5] | Compound | Activity [1] | IC50 [3] | Activity [6] |
| --- | --- | --- | --- | --- | --- | --- |
| Active | Active | Active | COc1cc(/C=C/C(=O)CC(=O)/C=C/c2ccc(OC(=O)CCCC(=O)NCCCOCCOCCOCCCNC(=O)CCCC[C@@H]3SC[C@@H]4NC(=O)N[C@@H]43)c(OC)c2)ccc1O | Active | 36 µM | – |
| – | – | – | COc1cc(/C=C/C(=O)CC(=O)/C=C/c2ccc(O)c(OC)c2)ccc1O [CURCUMIN] | – | 18 µM | 34% |
